The target in one data set is recombinant human VEGFR2 (Homo sapiens (Human), UniProt P35968). The data set can be described thus: Inhibition of VEGFR2 kinase activity (Z'-LYTE kit). The data set is classed as biochemical. The following applies: ATP 50 μM, 25° C. 2 hours. The method, then:
The inhibition effect of VEGFR2 kinase activity in vitro was determined by the following method.
The inhibition effect of the compounds of the present invention on VEGFR2 kinase activity was determined by the following experimental method:
Z'-LYTEC® Kinase Assay Kit—Tyrosine 1 Peptide (PV3190, Invitrogen) was used to assay enzyme activity. 5 μl of recombinant human VEGFR2 enzyme (PV3660, Invitrogen) and VEGFR2 substrate polypeptide (in the reaction system, the final concentration of enzyme was 0.14 ng/μL, and the final concentration of substrate was 2 μM) formulated with reaction buffer (50 mM HEPES pH7.5, 10 mM MgCl2, 1 mM EGTA, 0.05% BRIJ-35), 2.5 μl of a 2-fold gradient dilution of the compounds dissolved in 5% DMSO, and 2.5 μL of ATP solution (the final concentration of ATP was 50 μM) were added successively to a 384-well plate (4513, Corning). After reaction at 25° C. for 2 hours, 5 μL of detection reagent was added to each well. After the plate was placed at 25° C. for 1 hour, the fluorescence signal values at emission wavelengths of 445 nm and 520 nm were measured with a NOVOstar (BMG) multi-function microplate reader. The IC50 values of the compounds for enzyme inhibition were calculated using Graphpad prism software based on each concentration of the compound and the corresponding signal value thereof.

A short description of data set [1]: Pharmacokinetics assay in rats after intragastrical administration. Type of data set: in vivo. The following applies: both sexes, Sprague-Dawley, rat, plasma, po, SD rats; for Vd/F / AUC / CL/F / half-life / MRT: 2.0 mg/kg; for Vd/F: read-out: Apparent distribution volume Vz/F; for AUC: read-out: Area under curve AUC; for CL/F: read-out: Clearance CLz/F; for half-life: read-out: Half-life T1/2 (converted); for MRT: read-out: Residence time MRT. The method, then: Rats were used as test animals. The drug concentration in plasma at different time points was determined by LC/MS/MS method after intragastrical administration of the compounds of Examples 1 and 2 to rats. The pharmacokinetic behavior of the compounds of the present invention was studied and evaluated in rats.
Eight healthy adult Sprague-Dawley (SD) rats (half male and half female) were purchased from SINO-BRITISH SIPPR/BK LAB. ANIMAL LTD., CO, with Certificate No.: SCXK (Shanghai) 2008-0016, and equally divided into 2 groups (4 rats per group).
A certain amount of the test drug was weighed, and added with 5% by volume of DMSO, 5% by volume of Tween 80, and 90% by volume of physiological saline to prepare a 0.2 mg/mL colorless, clear and transparent solution.
After an overnight fast, SD rats were administered intragastrically the test drugs at an administration dosage of 2.0 mg/kg and an administration volume of 10.0 mL/kg.
The rats were intragastrically administered the compounds of Examples 1 and 2. 0.2 mL of blood was taken from the orbital sinus before administration and at 0.5, 1.0, 2.0, 4.0, 6.0, 8.0, 11.0 and 24.0 hours after administration. The samples were stored in heparinized tubes, and centrifuged for 10 minutes at 4° C. at 3,500 rpm to separate the blood plasma. The plasma samples were stored at −20° C. The rats were fed 2 hours after administration.
The content of the test compounds in the plasma of rats after intragastrical administration of the test drugs at different concentrations was determined: 25 μL of rat plasma at each time after administration was taken, added with 30 μL (100 ng/mL) of the internal standard solution of camptothecin and 225 μL of acetonitrile, vortex-mixed for 5 minutes, and centrifuged for 10 minutes (3600 rpm). 5.0 μL of the supernatant was taken from the plasma samples for LC/MS/MS analysis.

Another data set addresses TGFβRI kinase ALK5 (Homo sapiens (Human), UniProt P36897). Put plainly: Inhibition of TGFβRI kinase ALK5 activity (ADP-Glo kit). Type of data set: biochemical. Particulars: ATP 50 μM, 27° C. 2.5 hours. The method, then: The inhibition effect of TGFβRI kinase activity in vitro was determined by the following method.
The inhibition effect of the compounds of the present invention on TGFβRI kinase ALK5 activity was determined by the following experimental method:
(§1) TGFβRI kinase assay kit (V4093, Promega) was used to assay enzyme activity. 2 μl of enzyme solution (the final concentration of enzyme in the reaction system was 2 ng/μL) formulated with reaction buffer (40 mM Tris pH 7.5, 20 mM MgCl2, 0.1 mg/ml BSA), 1 μl of a 3-fold gradient dilution of the compounds dissolved in 5% DMSO, and 2 μl of a mixed solution of ATP and TGFβRI substrate peptide (the final concentration of ATP was 50 μM, and the final concentration of substrate was 0.2 μg/μL) were added successively to a 384-well plate (4514, Corning). After reaction at 27° C. for 2.5 hours, 5 μl of ADP-Glo solution in the kit was added to each well, then the plate was placed at 27° C. for 40 minutes. 10 μl of kinase assay reagent was then added to each well, then the plate was placed at 27° C. for 30 minutes. The chemiluminescence signal values were measured with a Victor 3 (PerkinElmer) multi-function microplate reader. The IC50 values of the compounds for enzyme inhibition were calculated using Graphpad prism software based on each concentration of the compound and the corresponding signal value thereof.

The target in a further data set is p38α kinase (Homo sapiens (Human), UniProt Q16539). Put plainly: Inhibition of p38α kinase activity (ADP-Glo kit). The data set is classed as biochemical. The following applies: ATP 50 μM, 27° C. 2.5 hours. The method, then: The inhibition of p38α kinase activity in vitro was determined by the following method.
Sequence of p38α kinase (Q16539 whole entry): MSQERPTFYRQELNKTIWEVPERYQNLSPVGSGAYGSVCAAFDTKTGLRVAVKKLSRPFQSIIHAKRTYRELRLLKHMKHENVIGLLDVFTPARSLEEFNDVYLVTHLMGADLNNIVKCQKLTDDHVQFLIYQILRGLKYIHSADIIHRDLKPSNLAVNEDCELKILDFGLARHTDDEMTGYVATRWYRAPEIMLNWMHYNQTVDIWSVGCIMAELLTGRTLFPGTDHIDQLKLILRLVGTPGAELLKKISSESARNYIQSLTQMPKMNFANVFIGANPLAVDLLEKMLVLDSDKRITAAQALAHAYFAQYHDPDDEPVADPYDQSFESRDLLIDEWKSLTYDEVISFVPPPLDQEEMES
The inhibition effect of the compounds of the present invention on p38α kinase activity was determined by the following experimental method:
as §1, with “p38α kinase” for “TGFβRI kinase”, “kit (V9591,” for “kit (V4093,”, “was 0.5” for “was 2”, “and p38” for “and TGFβRI”, “compounds on” for “compounds for”
A general note: ADP-Glo first removes unused ATP, then detects ADP through luciferase.

Sequence of TGFβRI kinase ALK5 (P36897 34-503): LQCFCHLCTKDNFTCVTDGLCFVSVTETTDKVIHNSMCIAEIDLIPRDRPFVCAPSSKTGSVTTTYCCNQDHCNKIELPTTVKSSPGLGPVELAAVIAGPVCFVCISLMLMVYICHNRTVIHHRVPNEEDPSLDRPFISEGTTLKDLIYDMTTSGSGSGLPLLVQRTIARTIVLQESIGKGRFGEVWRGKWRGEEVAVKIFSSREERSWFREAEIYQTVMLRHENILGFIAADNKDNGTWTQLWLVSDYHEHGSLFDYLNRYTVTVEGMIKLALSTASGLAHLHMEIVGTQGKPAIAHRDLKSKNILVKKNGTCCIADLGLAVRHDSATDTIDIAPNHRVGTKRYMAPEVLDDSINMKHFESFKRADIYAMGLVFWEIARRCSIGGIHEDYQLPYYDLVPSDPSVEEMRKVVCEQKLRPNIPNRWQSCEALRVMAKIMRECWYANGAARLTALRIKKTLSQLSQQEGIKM
Sequence of recombinant human VEGFR2 (P35968 20-1356): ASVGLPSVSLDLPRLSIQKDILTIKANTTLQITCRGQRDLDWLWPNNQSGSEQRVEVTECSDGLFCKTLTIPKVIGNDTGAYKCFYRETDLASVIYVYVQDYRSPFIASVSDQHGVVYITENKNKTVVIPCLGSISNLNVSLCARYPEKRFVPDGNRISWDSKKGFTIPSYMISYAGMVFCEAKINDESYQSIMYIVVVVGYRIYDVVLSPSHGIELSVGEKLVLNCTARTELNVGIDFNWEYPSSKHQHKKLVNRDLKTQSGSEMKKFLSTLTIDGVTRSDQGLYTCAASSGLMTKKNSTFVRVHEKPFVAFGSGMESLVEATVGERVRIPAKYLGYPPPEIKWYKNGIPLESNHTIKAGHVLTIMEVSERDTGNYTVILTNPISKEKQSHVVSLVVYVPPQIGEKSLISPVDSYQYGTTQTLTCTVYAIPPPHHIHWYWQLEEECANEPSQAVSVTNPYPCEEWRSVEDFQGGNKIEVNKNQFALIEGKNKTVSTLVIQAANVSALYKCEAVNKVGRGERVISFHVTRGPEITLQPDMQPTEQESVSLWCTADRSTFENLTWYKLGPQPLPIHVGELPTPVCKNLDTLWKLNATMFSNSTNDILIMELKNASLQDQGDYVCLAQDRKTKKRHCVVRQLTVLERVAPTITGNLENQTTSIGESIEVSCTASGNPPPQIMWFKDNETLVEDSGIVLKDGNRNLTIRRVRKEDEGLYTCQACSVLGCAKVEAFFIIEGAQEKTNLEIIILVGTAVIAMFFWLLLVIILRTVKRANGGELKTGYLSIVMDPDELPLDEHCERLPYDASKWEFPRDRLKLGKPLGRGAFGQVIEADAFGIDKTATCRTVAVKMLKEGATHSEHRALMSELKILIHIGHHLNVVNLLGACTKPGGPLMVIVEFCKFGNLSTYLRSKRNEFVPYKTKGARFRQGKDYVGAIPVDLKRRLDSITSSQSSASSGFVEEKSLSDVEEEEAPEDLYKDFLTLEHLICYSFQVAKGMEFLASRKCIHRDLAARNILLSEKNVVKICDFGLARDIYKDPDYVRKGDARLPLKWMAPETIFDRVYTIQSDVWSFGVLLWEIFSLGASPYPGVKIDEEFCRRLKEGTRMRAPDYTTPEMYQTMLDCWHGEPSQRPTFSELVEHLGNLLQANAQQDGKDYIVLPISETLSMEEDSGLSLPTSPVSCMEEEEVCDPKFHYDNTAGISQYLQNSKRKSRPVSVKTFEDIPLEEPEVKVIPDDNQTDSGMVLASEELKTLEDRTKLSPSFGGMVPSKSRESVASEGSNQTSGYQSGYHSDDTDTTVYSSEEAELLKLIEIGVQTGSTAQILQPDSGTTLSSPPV

Turning to `Cc1cccc(-c2nn(C3CCC3)cc2-c2ccnc(-c3ccc(S(C)(=O)=O)cc3)c2)n1` [Example 1, 4-(1-Cyclobutyl-3-(6-methylpyridin-2-yl)-1H-pyrazol-4-yl)-2-(4-(methylsulfonyl)phenyl)pyridine], the IC50 (in general, the point on the concentration scale where inhibition reaches its midpoint) at recombinant human VEGFR2 came to 2.5 µM. Further, in data set [1] (2 mg/kg, heading: Plasma concentration Cmax), the Cmax (as a rule, the peak of the concentration-time curve) stood at 1830 ± 941 ng/mL. In data set [1], the Vd/F was found to be 1.2 ± 0.437 L/kg; the AUC (in general, the area under the concentration-time curve, a measure of exposure) was 3270 ± 1470 ng·h/mL; the CL/F is 11.9 ± 5.2 mL/min/kg; the half-life was 1.23 ± 0.33 h. For the same compound, in data set [1], the MRT (in general, the average time that molecules of a dose stay in the body) came to 1.72 ± 0.21 h. For the same compound, at TGFβRI kinase ALK5, the IC50 is 0.208 µM. The compound also returned an IC50 against p38α kinase of 2.2 µM.
`Cc1cccc(-c2nn(C3CC3)cc2-c2ccnc(-c3ccc(S(C)(=O)=O)cc3)c2)n1` [Example 2, 4-(1-Cyclopropyl-3-(6-methylpyridin-2-yl)-1H-pyrazol-4-yl)-2-(4-(methylsulfonyl)phenyl)pyridine]: the IC50 at recombinant human VEGFR2 amounted to 4.2 µM. For the same compound, in data set [1], the Vd/F is 0.872 ± 0.536 L/kg, the area under the curve (AUC) was 8060 ± 5290 ng·h/mL, the CL/F was 5.33 ± 2.65 mL/min/kg and the half-life was 1.99 ± 0.95 h. The MRT in data set [1] stood at 3.06 ± 0.87 h. Besides, on TGFβRI kinase ALK5, the IC50 worked out at 0.27 µM. At p38α kinase, this compound came in with an IC50 of 1 µM.
